{"source": "patent US9261498B2", "about": "“Biomarker for sensitivity to mTOR inhibitor therapy in kidney cancer” (The Regents of the University of California, priority 2005, dated 2016)", "tested_on": "SN12C-shVHL RNAi and ACHN-shVHL RNAi xenograft tumors", "test": "Subcutaneous xenograft tumor growth, VHL knockdown tumors", "format": "in vivo, SCID mice", "settings": "0.1 mg/kg CCI-779 daily", "method": "FIGS. 1A-1E. Effects of VHL knockdown on sensitivity to CCI-779. (a) Immunoblotting of lysates derived from shRNA and control (empty vector, V) in SN12C, using antibodies against VHL (both isoforms detected), HIF-1α, HIF-2α, GLUT-1, CA-IX and β-Actin (as a loading control). (b) SN12C-CSCG and SN12C-VHLshRNA cells (1×10^5) were cultured in 10% serum rich media, in the presence of vehicle, 1 or 10 nM of CCI-779 for 5 days. Cell growth was measured by cell counts (n=3). […] (c) SN12C-CSCG (C1) and SN12C-CSCG shVHL RNA (C2) cells were injected into SCID mice at a dose of 1×10^6 cells per mouse (n=30). […] Phosphorylated-S6 protein in SN12C-CSCG and SN12C-VHL shRNA xenograft tumors treated with vehicle or 0.1 mg/kg of CCI-779 was measured by immunoblot C3 and C4). […]\nFor in vitro experiments, cells (5×10^4) were plated and treated with 1 and 10 nM CCI-779 (kind gift of J. Gibbons, Wyeth) or vehicle (ethanol). On day 5-post treatment, cells were trypsinized, resuspended in DMEM with 10% FBS and counted using the VI CELL counter (Beckman Coulter), according to the manufacturer's instructions. […] In vivo tumorigenicity was measured by injection of 5×10^5 SN12C-CSCG, ACHN-CSCG, SN12C-CSCG-VHLshRNAi, ACHN-CSCG-VHLshRNAi, SN12C-CSCG-VHLshRNAi-pBABE, SN12C-CSCG-VHLshRNAi-pBABE-HA-HIF-2α (P405A; P531A) cells in 100 μl of Matrigel (Collaborative Biomedical) subcutaneously into the flanks of SCID mice. […]"}
{"smiles": "CO[C@H]1C[C@@H]2CC[C@@H](C)[C@@](O)(O2)C(=O)C(=O)N2CCCC[C@H]2C(=O)O[C@H]([C@H](C)C[C@@H]2CC[C@@H](OC(=O)C(C)(CO)CO)[C@H](OC)C2)CC(=O)[C@H](C)/C=C(\\C)[C@@H](O)[C@@H](OC)C(=O)[C@H](C)C[C@H](C)/C=C/C=C/C=C/1C", "note": "[CCI-779]", "values": [{"measurement": "growth of the VHL shRNAi tumors", "value": "completely blocked the growth"}]}
